{"source": "patent US7981598B2", "about": "“Preventive/remedy for respiratory diseases” (Takeda Pharmaceutical Company Limited, priority 2004, dated 2011)", "key": {"C57BL/6 mice [1]": {"system": "C57BL/6 mice", "experiment": "Neutrophil infiltration in bronchoalveolar lavage fluid after intratracheal administration of hydroxylated cholesterols", "type": "in vivo", "details": "50 μg/50 μl/mouse/day for 4 days, lavage on the next day, FIG. 8", "procedure": "To examine whether the airway inflammatory reaction by 25-HC is observed in vivo as well, the effect of 25-HC administered to the lung of a mouse was examined.\n25-HC or a control (physiological saline containing a solvent at the same concentration as used in dissolving 25-HC (9.5% aqueous ethanol)), or 4β-hydroxycholesterol (4β-HC), was intratracheally administered for 4 days at a dose of 50 μg/50 μl/mouse/day to C57BL/6 mice (7-week-old, male) under anesthesia with ketamine and xylazine, and on the next day, the bronchoalveolar lavage fluid was recovered, and the number of inflammatory cells was determined."}, "[2]": {"system": "cells containing alveolar macrophages", "experiment": "Stimulation with LPS and 25-HC of bronchoalveolar lavage fluid cells from a cigarette smoke-exposed mouse; cytokine mRNA by real-time quantitative PCR", "type": "cell-based", "details": "co-stimulation with LPS (10 ng/ml) and 25-HC (0.3 to 3 μg/ml), 24 hours, compared with LPS alone; FIG. 6", "procedure": "To examine the involvement of CH25H on the morbid state of COPD, the effect of added 25-hydroxycholesterol (25-HC), i.e. CH25H reaction product, on alveolar macrophages was examined. According to the method described in EXAMPLE 4, a mouse was exposed to cigarette smoke for 4 days, and on the next day of the final exposure, the bronchoalveolar lavage fluid was recovered according to the method described in EXAMPLE 4, and cells containing alveolar macrophages were seeded on a 96-well plate at a density of 1×10^6 cells/ml. On the next day, the cells were stimulated with LPS (10 ng/ml) and 25-HC (0.3 to 3 μg/ml) and cultured for 24 hours. According to the method described in EXAMPLE 1, total RNA was then recovered from the cells according to the attached manual, and the amounts of mRNAs of CXCL2 and IL-1β, that is, inflammatory cytokines, were quantified by the real-time quantitative PCR method. As each probe, the corresponding probe was selected from Assays on demand gene expression product (Applied Biosystems) and used. The expression level of each gene was calculated as relative expression value to rodent GAPDH by the comparative Ct value method."}, "C57BL/6 mice [3]": {"system": "C57BL/6 mice", "experiment": "Production of cytokines in bronchoalveolar lavage fluid after intratracheal administration of 25-HC (ELISA)", "type": "in vivo", "details": "50 μg/50 μl/mouse, 3 hours after administration, vs control, FIG. 7", "procedure": "To examine whether production of cytokines by 25-HC is observed in vivo as well, the effect of 25-HC administered to the lung of a mouse was examined.\n25-HC or a control (physiological saline containing a solvent at the same concentration as used in dissolving 25-HC (10% aqueous ethanol)) was intratracheally administered at a dose of 50 μg/50 μl/mouse to C57BL/6 mice (6-week-old, male) under anesthesia with halothane, and 3, 6, 12, 24 and 48 hours after administration, the bronchoalveolar lavage fluid was recovered, and the amounts of KC and MIP-2, that is, inflammatory cytokines in the lavage fluid were measured by a commercial ELISA kit."}}}
{"smiles": "C[C@H](CCCC(C)(C)O)[C@H]1CC[C@H]2[C@@H]3CC=C4C[C@@H](O)CC[C@]4(C)[C@H]3CC[C@]12C", "note": "[25-HC, 25-hydroxycholesterol]", "values": [{"measurement": "neutrophil infiltration (number of neutrophils in bronchoalveolar lavage fluid)", "setting": "C57BL/6 mice [1]", "value": "significant neutrophil infiltration was recognized"}, {"measurement": "expression of CXCL2 (mRNA, relative to rodent GAPDH)", "setting": "[2]", "value": "increased depending on the concentration of 25HC"}, {"measurement": "expression of IL-1β (mRNA, relative to rodent GAPDH)", "setting": "[2]", "value": "increased depending on the concentration of 25HC"}, {"measurement": "amount of KC in bronchoalveolar lavage fluid", "setting": "C57BL/6 mice [3]", "value": "significant increase"}, {"measurement": "amount of MIP-2 in bronchoalveolar lavage fluid", "setting": "C57BL/6 mice [3]", "value": "significant increase"}]}
